Assay results as given in patent publication US12365655B2, “Compounds” (CTXT PTY LTD, priority 2018, dated 2025).

Key:
TIP60-KAT5 = TIP60-KAT5 (Homo sapiens, UniProt Q92993); assay: Acetyltransferase biochemical assay (AlphaScreen), KAT5
HBO-KAT7 = HBO-KAT7 (Homo sapiens, UniProt O95251); assay: Acetyltransferase biochemical assay (AlphaScreen), KAT7
MOZ-KAT6A = MOZ-KAT6A (Homo sapiens, UniProt Q92794, A567V); assay: Acetyltransferase biochemical assay (AlphaScreen), KAT6A
Sequence of MOZ-KAT6A (Q92794 with tags, fused parts or gaps A567V): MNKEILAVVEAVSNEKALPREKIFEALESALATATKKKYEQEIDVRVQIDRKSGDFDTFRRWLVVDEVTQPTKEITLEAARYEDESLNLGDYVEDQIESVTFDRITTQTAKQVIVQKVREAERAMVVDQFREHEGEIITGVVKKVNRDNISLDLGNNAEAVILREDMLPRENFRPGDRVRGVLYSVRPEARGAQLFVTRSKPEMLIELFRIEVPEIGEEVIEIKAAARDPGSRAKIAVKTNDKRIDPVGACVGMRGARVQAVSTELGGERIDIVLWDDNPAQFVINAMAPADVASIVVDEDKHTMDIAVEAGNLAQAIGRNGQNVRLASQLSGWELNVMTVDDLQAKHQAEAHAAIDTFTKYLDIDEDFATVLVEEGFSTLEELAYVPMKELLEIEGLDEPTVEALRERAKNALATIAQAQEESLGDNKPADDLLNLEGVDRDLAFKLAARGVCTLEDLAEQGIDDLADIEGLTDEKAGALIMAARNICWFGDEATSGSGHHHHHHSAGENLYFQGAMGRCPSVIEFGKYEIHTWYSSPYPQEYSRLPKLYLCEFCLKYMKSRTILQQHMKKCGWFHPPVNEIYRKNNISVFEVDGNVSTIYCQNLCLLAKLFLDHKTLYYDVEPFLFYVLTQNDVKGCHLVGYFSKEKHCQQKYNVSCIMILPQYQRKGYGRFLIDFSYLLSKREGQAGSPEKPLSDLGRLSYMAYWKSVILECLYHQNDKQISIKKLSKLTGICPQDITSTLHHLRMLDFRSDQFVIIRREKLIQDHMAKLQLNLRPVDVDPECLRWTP

Sequence of HBO-KAT7 (O95251 with tags, fused parts or gaps): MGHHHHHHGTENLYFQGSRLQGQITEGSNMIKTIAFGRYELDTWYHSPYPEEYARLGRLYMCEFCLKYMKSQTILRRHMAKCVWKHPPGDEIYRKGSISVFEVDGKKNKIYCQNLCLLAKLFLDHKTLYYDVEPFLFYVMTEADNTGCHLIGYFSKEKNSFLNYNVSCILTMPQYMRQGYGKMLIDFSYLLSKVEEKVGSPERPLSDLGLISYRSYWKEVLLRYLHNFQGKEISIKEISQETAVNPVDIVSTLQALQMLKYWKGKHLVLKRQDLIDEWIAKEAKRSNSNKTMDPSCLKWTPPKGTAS
Sequence of TIP60-KAT5 (Q92993 with tags, fused parts or gaps isoform Q92993-2): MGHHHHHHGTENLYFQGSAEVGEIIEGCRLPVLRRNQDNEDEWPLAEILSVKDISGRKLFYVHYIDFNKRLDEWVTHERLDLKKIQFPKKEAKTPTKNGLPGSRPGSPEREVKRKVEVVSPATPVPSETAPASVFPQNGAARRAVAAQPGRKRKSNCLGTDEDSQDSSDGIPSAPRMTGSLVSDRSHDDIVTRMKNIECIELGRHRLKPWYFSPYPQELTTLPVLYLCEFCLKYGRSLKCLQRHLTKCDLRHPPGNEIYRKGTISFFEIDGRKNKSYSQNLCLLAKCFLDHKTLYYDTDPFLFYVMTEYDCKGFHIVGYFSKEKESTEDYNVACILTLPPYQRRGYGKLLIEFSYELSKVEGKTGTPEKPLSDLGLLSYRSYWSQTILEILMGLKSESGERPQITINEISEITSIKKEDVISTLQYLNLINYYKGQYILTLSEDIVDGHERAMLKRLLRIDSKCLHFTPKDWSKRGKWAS

Compound	IC50 (TIP60-KAT5)	IC50 (HBO-KAT7)	IC50 (MOZ-KAT6A)
CCc1ccc(S(=O)(=O)Nc2noc3ccccc23)cc1 [Example 53, N-(benzo[d]isoxazol-3-yl)-4-ethylbenzene sulfonamide]	> 125 µM	> 125 µM	90.7 µM
COc1cccc(OC)c1S(=O)(=O)Nc1noc2ccc(C)cc12 [Example 104, 2,6-Dimethoxy-N-(5-methylbenzo[d]isoxazol-3-yl)benzenesulfonamide]	28.1 µM	3.13 µM	0.786 µM
CCc1ccc(OC)c(S(=O)(=O)Nc2noc3c(C(=O)NC)cccc23)c1 [Example 184, 3-(5-Ethyl-2-methoxyphenylsulfonamido)-N-methylbenzo[d]isoxazole-7-carboxamide]	> 125 µM	31 µM	> 125 µM
COCc1ccccc1S(=O)(=O)Nc1noc2cccc(OC)c12 [Example 88, N-(4-methoxybenzo[d]isoxazol-3-yl)-2-(methoxymethyl)benzene-sulfonamide]	> 125 µM	7.51 µM	41.2 µM
COc1ccc(C(F)(F)F)c(OC)c1S(=O)(=O)Nc1noc2cccc(OC)c12 [Example 101, 2,6-Dimethoxy-N-(4-methoxybenzo[d]isoxazol-3-yl)-3-(trifluoromethyl)benzenesulfonamide]	98.2 µM	32.8 µM	3.8 µM
O=S(=O)(Nc1noc2ccccc12)c1ccc(C2CCCCC2)cc1 [Example 71, N-(benzo[d]isoxazol-3-yl)-4-cyclohexyl benzene-sulfonamide]	28.4 µM	21.6 µM	11.6 µM
COc1cc(C)cc(-c2cc(OC)c3c(NS(=O)(=O)c4c(OC)cccc4OC)noc3c2)c1 [Example 248, 2,6-Dimethoxy-N-(4-methoxy-6-(3-methoxy-5-methylphenyl)benzo[d]isoxazol-3-yl)benzenesulfonamide]	9.33 µM	0.375 µM	0.139 µM
COc1ccc(C(C)C)cc1S(=O)(=O)Nc1noc2ccccc12 [Example 49, N-(benzo[d]isoxazol-3-yl)-5-isopropyl-2-methoxy benzene sulfonamide]	74.6 µM	77.8 µM	8.13 µM
COc1cccc(OC)c1S(=O)(=O)Nc1noc2c(-c3ccccc3)ccc(OC)c12 [Example 142, 2,6-Dimethoxy-N-(4-methoxy-7-phenylbenzo[d]isoxazol-3-yl)benzenesulfonamide]	32.2 µM	1.16 µM	3.3 µM
CCc1ccc(OC)c(S(=O)(=O)Nc2noc3c(F)cccc23)c1 [Example 152]	38.9 µM	9.87 µM	6.28 µM
COc1cccc(OC)c1S(=O)(=O)Nc1noc2cc(-c3cccnc3)cc(OC)c12 [Example 246, 2,6-Dimethoxy-N-(4-methoxy-6-(pyridin-3-yl)benzo[d]isoxazol-3-yl)benzenesulfonamide]	27.1 µM	0.478 µM	0.676 µM
COc1cccc2onc(NS(=O)(=O)c3ccc4c(c3)CCCC4)c12 [Example 84, N-(4-methoxybenzo[d]isoxazol-3-yl)-5,6,7,8-tetrahydro-naphthalene-2-sulfonamide]	50.5 µM	20 µM	18.7 µM
COc1ccc(OC)c(S(=O)(=O)Nc2noc3ccccc23)c1 [Example 46, N-(benzo[d]isoxazol-3-yl)-2,5-dimethoxybenzene-sulfonamide]	> 125 µM	74.4 µM	36.2 µM
CCc1ccc(OC)c(S(=O)(=O)Nc2noc3cc(C4CC4)ccc23)c1 [Example 195]	16.7 µM	4.96 µM	1.32 µM
CCc1ccc(OC)c(S(=O)(=O)Nc2noc3cc(-n4cccn4)ccc23)c1 [Example 131]	69.7 µM	23.8 µM	3.11 µM
CCc1cccc(S(=O)(=O)Nc2noc3ccccc23)c1 [Example 52, N-(benzo[d]isoxazol-3-yl)-3-ethylbenzene sulfonamide]	> 125 µM	> 125 µM	85.3 µM
O=S(=O)(Nc1noc2cccc(Cl)c12)c1cc(Br)cc2c1OCC2 [Example 127, 5-bromo-N-(4-chlorobenzo[d]isoxazol-3-yl)-2,3-dihydrobenzofuran-7-sulfonamide]	49.7 µM	9.49 µM	9.16 µM
COc1cc(Br)ccc1S(=O)(=O)Nc1noc2ccccc12 [Example 141]	> 125 µM	24.3 µM	39.6 µM

The remaining lines, values ahead:

IC50 (TIP60-KAT5)	IC50 (HBO-KAT7)	IC50 (MOZ-KAT6A)	Compound
> 125 µM	14.2 µM	62.7 µM	O=S(=O)(Nc1noc2cccc(Cl)c12)c1cccc2nsnc12 [Example 7, N-(4-chlorobenzo [d]isoxazol-3-yl)benzo[c][1,2,5]thiadiazole-4-sulfonamide]
> 125 µM	53.6 µM	36.1 µM	Cc1ccc(S(=O)(=O)Nc2noc3cccc(Cl)c23)cc1Cl [Example 31, 3-chloro-N-(4-chlorobenzo[d]isoxazol-3-yl)-4-methylbenzenesulfonamide]
65.1 µM	23.2 µM	23.8 µM	COc1c(S(=O)(=O)Nc2noc3cccc(Cl)c23)ccc(Cl)c1Cl [Example 3, 3,4-dichloro-N-(4-chlorobenzo[d]isoxazol-3-yl)-2-methoxy benzenesulfonamide]
> 125 µM	33.9 µM	> 125 µM	CC(C)Oc1ccc(S(=O)(=O)Nc2noc3cccc(Cl)c23)cc1 [Example 24, N-(4-chlorobenzo [d]isoxazol-3-yl)-4-isopropoxybenzene sulfonamide]
> 125 µM	37.6 µM	66.6 µM	O=S(=O)(Nc1noc2cccc(Cl)c12)c1cccc2ccncc12 [Example 159, N-(4-chlorobenzo[d]isoxazol-3-yl)isoquinoline-8-sulfonamide]
80.1 µM	6.7 µM	27.5 µM	O=S(=O)(Nc1noc2cccc(Cl)c12)c1ccccc1OC(F)F [Example 38, N-(4-chlorobenzo [d]isoxazol-3-yl)-2-(difluoromethoxy) benzenesulfonamide]
35.2 µM	5.17 µM	6.22 µM	O=S(=O)(Nc1noc2cccc(Cl)c12)c1ccccc1Oc1ccccc1 [Example 4, N-(4-chlorobenzo [d]isoxazol-3-yl)-2-phenoxybenzene sulfonamide]
121 µM	19.9 µM	2.13 µM	COc1ccc(C(C)(C)C)cc1S(=O)(=O)Nc1noc2cccc(Cl)c12 [Example 40, 5-(tert-butyl)-N-(4-chlorobenzo[d]isoxazol-3-yl)-2-methoxy benzenesulfonamide]
65.1 µM	11.8 µM	4.27 µM	COc1ccc(C(C)C)cc1S(=O)(=O)Nc1noc2cccc(Cl)c12 [Example 41, N-(4-chlorobenzo [d]isoxazol-3-yl)-5-isopropyl-2-methoxybenzene sulfonamide]
60.2 µM	10.8 µM	10.6 µM	O=S(=O)(Nc1noc2cccc(Cl)c12)c1ccc2c(c1)CCC2 [Example 44, N-(4-chlorobenzo [d]isoxazol-3-yl)-2,3-dihydro-1H-indene-5-sulfonamide]
> 125 µM	> 125 µM	116 µM	O=S(=O)(Nc1noc2ccccc12)c1cccc(Cl)c1Cl [Example 60, N-(benzo[d]isoxazol-3-yl)-2,3-dichlorobenzene-sulfonamide]
